{
  "source": "ChEMBL document CHEMBL1201862",
  "about": "“PubChem BioAssay data set” (2004)",
  "assay_in_all_cases": "DTP human tumour cell line panel, 48 h",
  "key": {"BT-549": {"test_system": "BT-549"}, "HL-60": {"test_system": "HL-60"}, "A498": {"test_system": "A498"}, "LOX IMVI": {"test_system": "LOX IMVI"}, "SK-MEL-28": {"test_system": "SK-MEL-28"}, "NCI-H522": {"test_system": "NCI-H522"}, "ACHN": {"test_system": "ACHN"}, "DU-145": {"test_system": "DU-145"}, "MDA-MB-435": {"test_system": "MDA-MB-435"}, "HCT-116": {"test_system": "HCT-116"}, "UACC-62": {"test_system": "UACC-62"}, "OVCAR-3": {"test_system": "OVCAR-3"}, "NCI-H23": {"test_system": "NCI-H23"}, "SF-295": {"test_system": "SF-295"}, "SF-268": {"test_system": "SF-268"}, "UACC-257": {"test_system": "UACC-257"}, "SK-MEL-2": {"test_system": "SK-MEL-2"}, "Malme-3M": {"test_system": "Malme-3M"}, "OVCAR-4": {"test_system": "OVCAR-4"}, "MOLT-4": {"test_system": "MOLT-4"}, "EKVX": {"test_system": "EKVX"}, "T47D": {"test_system": "T47D"}, "CAKI-1": {"test_system": "CAKI-1"}, "RPMI-8226": {"test_system": "RPMI-8226"}, "OVCAR-8": {"test_system": "OVCAR-8"}, "Hs-578T": {"test_system": "Hs-578T"}, "HCT-15": {"test_system": "HCT-15"}, "MDA-MB-231": {"test_system": "MDA-MB-231"}, "COLO 205": {"test_system": "COLO 205"}, "TK-10": {"test_system": "TK-10"}, "NCI/ADR-RES": {"test_system": "NCI/ADR-RES"}, "MDA-N": {"test_system": "MDA-N"}, "HOP-62": {"test_system": "HOP-62"}, "SF-539": {"test_system": "SF-539"}, "UO-31": {"test_system": "UO-31"}, "SNB-19": {"test_system": "SNB-19"}, "SN12C": {"test_system": "SN12C"}, "SR": {"test_system": "SR"}, "OVCAR-5": {"test_system": "OVCAR-5"}, "786-0": {"test_system": "786-0"}, "MCF7": {"test_system": "MCF7"}, "M14": {"test_system": "M14"}, "IGROV-1": {"test_system": "IGROV-1"}, "HCC 2998": {"test_system": "HCC 2998"}, "HT-29": {"test_system": "HT-29"}, "SNB-75": {"test_system": "SNB-75"}, "A549": {"test_system": "A549"}, "K562": {"test_system": "K562"}, "RXF 393": {"test_system": "RXF 393"}, "SK-OV-3": {"test_system": "SK-OV-3"}, "KM12": {"test_system": "KM12"}, "NCI-H460": {"test_system": "NCI-H460"}, "NCI-H226": {"test_system": "NCI-H226"}, "U-251": {"test_system": "U-251"}, "SW-620": {"test_system": "SW-620"}, "PC-3": {"test_system": "PC-3"}, "SK-MEL-5": {"test_system": "SK-MEL-5"}, "HOP-92": {"test_system": "HOP-92"}},
  "note": "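Each compound was tested at five concentrations against cells in 96-well plates for 48 hours. GI50 is the concentration that inhibits growth by half.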 Active and inactive are the calls of the source. Cut-off read from the data, not from the text of the source: active = GI50 up to about 1.1 µM and inactive = higher.",
  "data": [
    {"molecule": "O=C(CSc1nc2ccc(I)cc2c(=O)n1Cc1ccccc1)NN1C(=O)c2ccccc2C1=O", "values": [
      {"measurement": "GI50", "setting": "BT-549", "value": "15.4 µM (inactive)"},
      {"measurement": "GI50", "setting": "HL-60", "value": "16.7 µM (inactive)"},
      {"measurement": "GI50", "setting": "A498", "value": "14.8 µM (inactive)"},
      {"measurement": "GI50", "setting": "LOX IMVI", "value": "15 µM (inactive)"},
      {"measurement": "GI50", "setting": "SK-MEL-28", "value": "17.9 µM (inactive)"},
      {"measurement": "GI50", "setting": "NCI-H522", "value": "14.9 µM (inactive)"},
      {"measurement": "GI50", "setting": "ACHN", "value": "18.9 µM (inactive)"},
      {"measurement": "GI50", "setting": "DU-145", "value": "25.4 µM (inactive)"},
      {"measurement": "GI50", "setting": "MDA-MB-435", "value": "34.4 µM (inactive)"},
      {"measurement": "GI50", "setting": "HCT-116", "value": "16.7 µM (inactive)"},
      {"measurement": "GI50", "setting": "UACC-62", "value": "24.9 µM (inactive)"},
      {"measurement": "GI50", "setting": "OVCAR-3", "value": "11.6 µM (inactive)"},
      {"measurement": "GI50", "setting": "NCI-H23", "value": "18.2 µM (inactive)"},
      {"measurement": "GI50", "setting": "SF-295", "value": "10.6 µM (inactive)"},
      {"measurement": "GI50", "setting": "SF-268", "value": "8.85 µM (inactive)"},
      {"measurement": "GI50", "setting": "UACC-257", "value": "17.5 µM (inactive)"},
      {"measurement": "GI50", "setting": "SK-MEL-2", "value": "10.8 µM (inactive)"},
      {"measurement": "GI50", "setting": "Malme-3M", "value": "18.2 µM (inactive)"},
      {"measurement": "GI50", "setting": "OVCAR-4", "value": "12.2 µM (inactive)"},
      {"measurement": "GI50", "setting": "MOLT-4", "value": "28.4 µM (inactive)"},
      {"measurement": "GI50", "setting": "EKVX", "value": "12.9 µM (inactive)"},
      {"measurement": "GI50", "setting": "T47D", "value": "15.8 µM (inactive)"},
      {"measurement": "GI50", "setting": "CAKI-1", "value": "9.23 µM (inactive)"},
      {"measurement": "GI50", "setting": "RPMI-8226", "value": "33.3 µM (inactive)"},
      {"measurement": "GI50", "setting": "OVCAR-8", "value": "11.8 µM (inactive)"},
      {"measurement": "GI50", "setting": "Hs-578T", "value": "6.47 µM (inactive)"},
      {"measurement": "GI50", "setting": "HCT-15", "value": 30.1, "unit": "µM"},
      {"measurement": "GI50", "setting": "MDA-MB-231", "value": "11.2 µM (inactive)"},
      {"measurement": "GI50", "setting": "COLO 205", "value": "25.5 µM (inactive)"},
      {"measurement": "GI50", "setting": "TK-10", "value": "13.7 µM (inactive)"},
      {"measurement": "GI50", "setting": "NCI/ADR-RES", "value": "15.5 µM (inactive)"},
      {"measurement": "GI50", "setting": "MDA-N", "value": "37.3 µM (inactive)"},
      {"measurement": "GI50", "setting": "HOP-62", "value": "4.75 µM (inactive)"},
      {"measurement": "GI50", "setting": "SF-539", "value": "3.42 µM (inactive)"},
      {"measurement": "GI50", "setting": "UO-31", "value": "2.37 µM (inactive)"},
      {"measurement": "GI50", "setting": "SNB-19", "value": "16.5 µM (inactive)"},
      {"measurement": "GI50", "setting": "SN12C", "value": "18.8 µM (inactive)"},
      {"measurement": "GI50", "setting": "SR", "value": "25.7 µM (inactive)"},
      {"measurement": "GI50", "setting": "OVCAR-5", "value": "26.2 µM (inactive)"},
      {"measurement": "GI50", "setting": "786-0", "value": "6.04 µM (inactive)"},
      {"measurement": "GI50", "setting": "MCF7", "value": "23.3 µM (inactive)"},
      {"measurement": "GI50", "setting": "M14", "value": "28.5 µM (inactive)"},
      {"measurement": "GI50", "setting": "IGROV-1", "value": "19.3 µM (inactive)"},
      {"measurement": "GI50", "setting": "HCC 2998", "value": "28.8 µM (inactive)"},
      {"measurement": "GI50", "setting": "HT-29", "value": "24.8 µM (inactive)"},
      {"measurement": "GI50", "setting": "SNB-75", "value": "4.3 µM (inactive)"},
      {"measurement": "GI50", "setting": "A549", "value": "18 µM (inactive)"},
      {"measurement": "GI50", "setting": "K562", "value": "31 µM (inactive)"},
      {"measurement": "GI50", "setting": "RXF 393", "value": "8.3 µM (inactive)"},
      {"measurement": "GI50", "setting": "SK-OV-3", "value": "11.6 µM (inactive)"},
      {"measurement": "GI50", "setting": "KM12", "value": "31.2 µM (inactive)"},
      {"measurement": "GI50", "setting": "NCI-H460", "value": "22.9 µM (inactive)"},
      {"measurement": "GI50", "setting": "NCI-H226", "value": "6.3 µM (inactive)"},
      {"measurement": "GI50", "setting": "U-251", "value": "12.7 µM (inactive)"},
      {"measurement": "GI50", "setting": "SW-620", "value": "27.5 µM (inactive)"},
      {"measurement": "GI50", "setting": "PC-3", "value": "4.09 µM (inactive)"},
      {"measurement": "GI50", "setting": "SK-MEL-5", "value": "18.1 µM (inactive)"},
      {"measurement": "GI50", "setting": "HOP-92", "value": "14.4 µM (inactive)"}
    ]}
  ]
}
